In PubChem BioAssay (NCI):
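1) Cells in 96-well plates. 2) Compound, 48 h, 5 concentrations. 3) Linear interpolation between surrounding doses. 4) Unreached endpoint = highest concentration. GI50 is the concentration that inhibits growth by half. TGI is the concentration that stops growth completely.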

Legend:
Test in all cases: NCI-60 cell line screen, 48 h
[1] = tested on: 786-0 renal
[2] = tested on: A498 renal
[3] = tested on: A549 NSCLC
[4] = tested on: ACHN renal
[5] = tested on: BT-549 breast
[6] = tested on: CAKI-1 renal
[7] = tested on: CCRF-CEM leukemia
[8] = tested on: COLO 205 colon
[9] = tested on: DU-145 prostate
[10] = tested on: EKVX NSCLC
[11] = tested on: HCC-2998 colon
[12] = tested on: HCT-116 colon
[13] = tested on: HCT-15 colon
[14] = tested on: HL-60(TB) leukemia
[15] = tested on: HOP-62 NSCLC
[16] = tested on: HOP-92 NSCLC
[17] = tested on: HS 578T breast
[18] = tested on: HT29 colon
[19] = tested on: IGROV1 ovarian
[20] = tested on: K-562 leukemia
[21] = tested on: KM12 colon
[22] = tested on: LOX IMVI melanoma
[23] = tested on: M14 melanoma
[24] = tested on: MALME-3M melanoma
[25] = tested on: MCF7 breast
[26] = tested on: MDA-MB-231 breast
[27] = tested on: MDA-MB-435
[28] = tested on: MDA-MB-468 breast
[29] = tested on: MOLT-4 leukemia
[30] = tested on: NCI-H226 lung
[31] = tested on: NCI-H23 lung
[32] = tested on: NCI-H460 lung
[33] = tested on: NCI-H522 lung
[34] = tested on: OVCAR-3 ovarian
[35] = tested on: OVCAR-4 ovarian
[36] = tested on: OVCAR-5 ovarian
[37] = tested on: OVCAR-8 ovarian
[38] = tested on: PC-3 prostate
[39] = tested on: RPMI-8226 leukemia
[40] = tested on: RXF 393 renal
[41] = tested on: SF-268 CNS
[42] = tested on: SF-295 CNS
[43] = tested on: SF-539 CNS
[44] = tested on: SK-MEL-2 melanoma
[45] = tested on: SK-MEL-28 melanoma
[46] = tested on: SK-MEL-5 melanoma
[47] = tested on: SK-OV-3 ovarian
[48] = tested on: SN12C renal
[49] = tested on: SNB-19 CNS
[50] = tested on: SNB-75 CNS
[51] = tested on: SR leukemia
[52] = tested on: SW-620 colon
[53] = tested on: T-47D breast
[54] = tested on: TK-10 renal
[55] = tested on: U251 CNS
[56] = tested on: UACC-257 melanoma
[57] = tested on: UACC-62 melanoma
[58] = tested on: UO-31 renal

Structure (SMILES): COc1cc(NC(=O)c2cc(-c3ccc(F)cc3F)ccc2O)cc(OC)c1OC
- GI50 [1]: 19.4 µM
- TGI [1]: 46.6 µM
- GI50 [2]: 12.1 µM
- TGI [2]: 25.8 µM
- GI50 [3]: 12.7 µM
- TGI [3]: 35.1 µM
- GI50 [4]: 16.2 µM
- TGI [4]: 66.3 µM
- GI50 [5]: 5.29 µM
- TGI [5]: 22.6 µM
- GI50 [6]: 7.67 µM
- TGI [6]: 38.8 µM
- GI50 [7]: 6.23 µM
- TGI [7]: 29.7 µM
- GI50 [8]: 18.2 µM
- TGI [8]: 34.4 µM
- GI50 [9]: 13.9 µM
- TGI [9]: 39.4 µM
- GI50 [10]: 12.3 µM
- TGI [10]: 48.3 µM
- GI50 [11]: 11.9 µM
- TGI [11]: 25.4 µM
- GI50 [12]: 13.7 µM
- TGI [12]: 32.2 µM
- GI50 [13]: 5.63 µM
- TGI [13]: 24.9 µM
- GI50 [14]: 6.09 µM
- TGI [14]: > 100 µM
- GI50 [15]: 13.4 µM
- TGI [15]: 33.2 µM
- GI50 [16]: 3.49 µM
- TGI [16]: 15.9 µM
- GI50 [17]: 5.2 µM
- TGI [17]: 26.9 µM
- GI50 [18]: 17.9 µM
- TGI [18]: 33.6 µM
- GI50 [19]: 10.4 µM
- TGI [19]: 30.9 µM
- GI50 [20]: 5.1 µM
- TGI [20]: > 100 µM
- GI50 [21]: 10.2 µM
- TGI [21]: 23.3 µM
- GI50 [22]: 13 µM
- TGI [22]: 27.3 µM
- GI50 [23]: 15.3 µM
- TGI [23]: 31.8 µM
- GI50 [24]: 11.4 µM
- TGI [24]: 25.9 µM
- GI50 [25]: 9.64 µM
- TGI [25]: 43.1 µM
- GI50 [26]: 18.8 µM
- TGI [26]: 51.2 µM
- GI50 [27]: 6.27 µM
- TGI [27]: 19.4 µM
- GI50 [28]: 3.98 µM
- TGI [28]: 17 µM
- GI50 [29]: 5.9 µM
- TGI [29]: 36.4 µM
- GI50 [30]: 6.92 µM
- TGI [30]: 30 µM
- GI50 [31]: 4.75 µM
- TGI [31]: 18.9 µM
- GI50 [32]: 6.51 µM
- TGI [32]: 20.2 µM
- GI50 [33]: 3.19 µM
- TGI [33]: 13.7 µM
- GI50 [34]: 5.49 µM
- TGI [34]: 32.4 µM
- GI50 [35]: 4.45 µM
- TGI [35]: 31.4 µM
- GI50 [36]: 19.3 µM
- TGI [36]: 43.4 µM
- GI50 [37]: 13 µM
- TGI [37]: > 100 µM
- GI50 [38]: 12.5 µM
- TGI [38]: 61.5 µM
- GI50 [39]: 3.4 µM
- TGI [39]: 45.9 µM
- GI50 [40]: 2.86 µM
- TGI [40]: 16.8 µM
- GI50 [41]: 6.03 µM
- TGI [41]: 28.3 µM
- GI50 [42]: 15.6 µM
- TGI [42]: 32.6 µM
- GI50 [43]: 12.4 µM
- TGI [43]: 26.5 µM
- GI50 [44]: 3.01 µM
- TGI [44]: 13.9 µM
- GI50 [45]: 8.98 µM
- TGI [45]: 22.3 µM
- GI50 [46]: 3.16 µM
- TGI [46]: 10.6 µM
- GI50 [47]: 8.43 µM
- TGI [47]: 23.9 µM
- GI50 [48]: 6.12 µM
- TGI [48]: 22.1 µM
- GI50 [49]: 6.63 µM
- TGI [49]: 29.5 µM
- GI50 [50]: 6.57 µM
- TGI [50]: 23.8 µM
- GI50 [51]: 4.2 µM
- TGI [51]: 40.5 µM
- GI50 [52]: 14.2 µM
- TGI [52]: 29 µM
- GI50 [53]: 2.73 µM
- TGI [53]: 9.31 µM
- GI50 [54]: 12 µM
- TGI [54]: 45.4 µM
- GI50 [55]: 11 µM
- TGI [55]: 27.1 µM
- GI50 [56]: 10.2 µM
- TGI [56]: 22.4 µM
- GI50 [57]: 3.52 µM
- TGI [57]: 13.4 µM
- GI50 [58]: 5.24 µM
- TGI [58]: 23.5 µM
